The text below walks through data of patent US8557733B2, “Composition for regenerating and stimulating growth of plants and for adapting plants to different stress factors” (Mitotech S.A., priority 2006, dated 2013).

One series has as its system wheat tussue culture. The conditions noted are these: wheat tissue culture; cited from earlier work.
The next series concerns maize callus cultures. The following applies: added to nutrient medium for callus initiation; cited from earlier work.
For a further series, the system named is maize embryogenic callus. The following applies: cited from earlier work.
Another series has as its system Lucerne calli. Nature of the series: Callus growth and regeneration ability of lucerne calli. In kind it is cell-based. How it is done:
(§1) In this work, calli and explants of tobacco, sugar cane, maize, lucerne, potato and tomatoes were used. Calli were incubated at Petri dishes containing agarized Murashige-Skoog medium with […] and 1 mg/L 2,4-dichlorophenoxyacetic acid. The cultivation was carried out at temperature 26° C., illumination intensity of 2 cd and the length of daylight of 16 hours. SkQ1 was added to autoclaved and cooled (up to 45° C.) nutrient medium immediately before callus planting. SkQ1 at concentrations of 0, 1.5, 5, 10, 20, 30 and 50 nM was used. Increase of callus green weight, a fraction of calli with shoots and roots and an average number of organs per a morphogenetic callus were taken into account after one month of cultivation.
Lucerne calli were cultivated for 1 month in the presence of different SkQ1 concentrations (0-10 nM). Effect of SkQ1 on callus growth (weight change) and regeneration ability (formation of calli with “green areas”) were assessed.

Series [1] concerns sugar cane calli. Nature of the series: Shoot formation and plant regeneration from sugar cane calli. The class given is cell-based. On the procedure:
as §1
At the same time, development of shoots of calli transferred onto regeneration medium from medium without SkQ1 has been at the very initial stage.
To produce normal plants, sugar cane shoots formed by 10 nM SkQ1 were transferred onto rootage agarized medium containing the same optimum SkQ1 concentration (10 nM). After root formation, the plants were transferred into water medium and then displanted into the ground. Estimation of the plant state was performed at every stage.

A further series concerns leaf potato explants. Nature of the series: Formation of shoots and roots from leaf potato explants. In kind it is cell-based. The following applies: 10 nM SkQ1, 10 days. On the procedure: (§2) Effect of SkQ1 on formation shoots and roots from leaf potato explants and stem tomato explants was investigated. Explants were incubated for 10 days in the presence of 10 nM SkQ1 or with no SkQ1.

In a further series the test system is rice seeds. The series is described as follows: Germination of rice seeds under water (anaerobic conditions). In kind it is in vivo. How it is done:
Effect of SkQ1 on germination of rice seeds under water (under anaerobic conditions) was studied. SkQ1 was added to water at concentrations of 0, 1, 3, 10, 30 nM.

The test system of another series is maize callus. Nature of the series: Morphogenetic processes in maize callus. The class given is cell-based. On the procedure:
as §1
Dose-dependent effect of SkQ1 on morphogenetic processes in maize callus was shown. […] Variations in green weight resulted mainly from amount of formed roots.

The test system of the next series is tobacco leaf explants. Nature of the series: Callus formation (dedifferentiation) and root formation in tobacco leaf explants. The class given is cell-based. The conditions noted are these: 0.6 μM SkQ1. How it is done:
Effect of SkQ1 on callus formation (dedifferentiation) in tobacco leaf explants was investigated. Sterile leaf disks of plants Nicotiana tabacum cv Samsun were sliced with approximately 1 cm^2 size. The resulting explants were placed at standard MS medium for callus formation supplemented with phytohormones 0.5 mg/L 6-benzylaminopurine and 1 mg/L naphthylacetic acid. Test Petri plates were also supplemented with 0.6 μM SkQ1. Explants were cultivated in darkness for 5 weeks. During incubation callus was initially formed at wound explant surfaces.

Series [2] relates to sugar cane calli. The series is described as follows: Survival of sugar cane calli after anaerobic stress. The class given is cell-based. The following applies: 48 hours anoxic, then aerobic medium with 10 nM SkQ1. How it is done:
Effect of SkQ1 on survival of sugar cane calli following anaerobic stress was assessed. For this purpose, sugar cane calli were incubated for 48 hours under anoxic conditions and then were transferred under aerobic conditions at a nutrient medium containing 10 nM SkQ1or no SkQ1 (control).

The next series has as its system stem tomato explants. Nature of the series: Formation of shoots and roots from stem tomato explants. In kind it is cell-based. The conditions noted are these: 10 nM SkQ1, 10 days. How it is done: as §2
In a further series the test system is isolated embryos. The following applies: micromolar concentration; wheat; cited from earlier work.
The mark [3] stands for this setting: 1-10 nM SkQ1, one month of cultivation.

Entries after “also recorded” stand apart in the source; their conditions may differ.

Consider xyloglucan pentasaccharide, for which the enhancement of morphogenesis in the series on wheat tussue culture is 1.5-2 fold.

Take `C1=CC2C=CC1C2` [norbornadiene]: the “frequency of embryogenic callus formation” value in the series with maize callus cultures is reported as “stimulated embryogenic callus formation”.

Consider `O=C(O)[C@@H]1CCCN1` [proline], for which, in the series on maize embryogenic callus (20 mM proline, 2.8 without), the “number of regenerants per explant” value was 7.6. In the series with maize embryogenic callus (400 mg/L proline in medium), the “increase of frequency of embryogenic callus formation and plant regeneration” value was 2-3 fold.

Consider `CC1=C(C)C(=O)C(CCCCCCCCCC[P+](c2ccccc2)(c2ccccc2)c2ccccc2)=CC1=O.[Br-]` [SkQ1], for which, in the series with Lucerne calli (0-10 nM SkQ1, 1 month), the “callus growth (weight change)” value was “does not affect significantly callus growth”. In addition, in the series with Lucerne calli (5 nM SkQ1, 1 month), the “stimulation of regeneration (formation of calli with green areas)” value is recorded as 2.5-3 fold. In addition, in the series with Lucerne calli (SkQ1 concentrations higher than 5 nM), the stimulation of regeneration result is listed as “positive effect eliminates”. The “onset of formation of shoots from calli” value in the series with sugar cane calli [1] (10 nM SkQ1, control calli showed no shoot formation) is reported as 19 day of incubation. Moreover, the “rooting of shoots and production of plants” value with sugar cane calli [1] (10 nM SkQ1, rootage medium, then water medium and ground) was “take roots properly and give normal viable plants”. For the same molecule, the “development of formed shoots on agarized regeneration medium” value in the series on sugar cane calli [1] (10 nM SkQ1 in regeneration medium) is reported as “continued to develop normally”. The “development of shoots on regeneration medium” value in the series on sugar cane calli [1] (100 nM SkQ1 in regeneration medium) is “termination of further development of shoots”. Moreover, the “development of shoots on regeneration medium” value in the series with sugar cane calli [1] (1000 nM SkQ1 in regeneration medium) is on record as “destruction of shoots”. The “shoot formation from undifferentiated tissue of sugar cane” value in the series on sugar cane calli [1] (FIG. 1) was “stimulates shoot formation”. Further, the viability of shoots result in the series on sugar cane calli [1] (formed and further cultivated at 100 nM or 1000 nM SkQ1) is “nonviable and died”. Also, in the series with sugar cane calli [1] (higher SkQ1 concentrations (above 10 nM)), the “onset of shoot formation from calli” value was greater than 31 days. Further, in the series with sugar cane calli [1] (higher SkQ1 concentrations, compared with 10 nM), the “amount of calli with shoot formation” value is reported as “in lesser amount of calli”. Further, the “formation of shoots and roots” value with leaf potato explants is “significantly enhances formation of both shoots and roots”. In addition, in the series with rice seeds (1 nM SkQ1 in water), the “germination of rice seeds under water” value is “enhance significantly germination; also recorded: dramatically enhances germination”. In addition, in the series with rice seeds (SkQ1 at concentrations higher than 1 nM (3, 10, 30 nM)), the “germination of rice seeds under water” value was “does not reveal such a stimulating effect”. Further, in the series with maize callus (0-50 nM SkQ1), the “callus accretion (green weight)” value was “did not affect essentially callus accretion”. Moreover, in the series on maize callus (1-10 nM SkQ1), the “amount of rhizogenic calli” value is given as “No reliable increase” and the “average number of roots per callus” value is given as “increased significantly”. Moreover, in the series on maize callus (setting [3]), the “average number of shoots per callus” value is “increase of an average number of shoots per callus” and the “inoculum fraction that forms shoots” value is “increase of inoculum fraction that forms shoots”. Further, the morphogenesis entry in the series with maize callus (SkQ1 at 20 nM and higher, shoot formation affected more than rhizogenesis) is given as “inhibited morphogenesis”. Further, the growth oppression entry in the series with maize callus (high SkQ1 concentrations) is reported as “No reliable growth oppression”. Moreover, the “rhizogenesis on repeated callus cultivation” value in the series on maize callus (repeated cultivation, same medium composition) is recorded as “even more pronounced amplification of rhizogenesis”. In addition, the “root formation from callus tissues” value with tobacco leaf explants (darkness, 5 weeks, controls showed no root formation) is “secondary differentiation of callus tissues with root formation; also recorded: stimulates root formation”. Further, the “state of differentiated explant tissues on further incubation” value with tobacco leaf explants (newly formed root tissues did well) was “necrotized and died”. In addition, in the series on sugar cane calli [2], the “capability for morphogenesis after anaerobic stress” value is “retain capability for morphogenesis” and the “survival of calli following anaerobic stress” value is “markedly higher capability for survival; also recorded: enhances resistance”. The “formation of shoots and roots” value in the series with stem tomato explants was “significantly enhances formation of both shoots and roots”.

As to `NC1(C(=O)O)CC1` [1-aminocyclopropane-1-carboxylic acid], in the series on maize callus cultures, the “decrease of a number of produced regenerants” value is on record as 68% and the “frequency of embryogenic callus formation” value is “significant reduction”.

Consider `O=[N+]([O-])[O-].[Ag+]` [silver nitrate], for which the “frequency of embryogenic callus formation” value with maize callus cultures was “stimulated embryogenic callus formation”.

`CC1=CC(=O)CC(C)(C)[C@@]1(O)/C=C/C(C)=C\C(=O)O` [abscisic acid]: in the series on isolated embryos, the embryogenic callus formation was “stimulated embryogenic callus formation”.
